Results as given in article PMC11651181, “Discovery of 6α-Thiazolylcarboxamidonaltrexamine Derivative (NTZ) as a Potent and Central Nervous System Penetrant Opioid Receptor Modulator with Drug-like Properties for Potential Treatment of Opioid Use Disorder” (ACS Pharmacology & Translational Science, 2024).
Entries after “also recorded” stand apart in the source; their conditions may differ. Where a name gives a salt, the structure may show the parent alone. Read-outs that look alike come from different tables or passages of the source.

What was measured:
[1] = target: T1, δ opioid receptor (DOR) (Homo sapiens, UniProt P41143); experiment: Competitive radioligand binding assay, DOR; details: for Selectivity δ/μ: ratio of Ki values
T1 construct: expressed in transfected cells; host or cells: CHO (hDOR-CHO), membrane preparation
Method: (§1) The competition binding assay was performed using monoclonal mouse opioid receptors expressed in CHO cell lines (monoclonal human δ opioid receptor was used for the DOR assay).
(§2) The bound radioligand was separated using a Brandel harvester. Specific binding to the MOR, KOR, and DOR was calculated by subtracting the binding observed in the presence of 5 μM naltrexone, U50488, and SNC80, respectively, from the binding in their absence. Relative affinity values (IC50) were determined by fitting displacement binding inhibition data to a nonlinear regression model using GraphPad Prism 8.0 (GraphPad Software, San Diego, CA). The % inhibition was calculated using the formula: % inhibition = 100% - [(binding with the tested compound - nonspecific binding)/specific binding] × 100%. The IC50 values were converted to Ki values using the Cheng-Prusoff equation: Ki = IC50/ [1 + ([L*]/KD)], where [L*] is the concentration of the radioligand and KD is the KD of the radioligand.[68]

[2] = target: T2, MOR (Mus musculus, UniProt P42866); experiment: MOR [35S]GTPγS functional assay; type: biochemical; details: for Emax: read-out: MOR [35S]GTPγS Binding %Emax of DAMGO, relative to 3 μM DAMGO, mean ± SEM
T2 construct: expressed in transfected cells; host or cells: CHO (MOR-CHO), membrane preparation
Method: (§3) The [^35S]GTPγS functional assay was used to assess the efficacy of compounds at the MOR, KOR, and DOR. In this assay, 10 μg of MOR-CHO/KOR-CHO/DOR-CHO membrane protein was incubated in 500 μL of TME with 100 mM NaCl, 20 μM GDP, 0.1 nM [^35S]GTPγS, and varying concentrations of the compound for 1.5 h in a 30 °C water bath. Protein concentration was adjusted using the Bradford protein assay. […] After incubation, bound radioactivity was separated by filtration through GF/B glass fiber filters and measured by liquid scintillation counting. All assays were performed in duplicate and repeated at least three times. Net stimulated [35S]GTPγS binding was calculated as agonist-stimulated minus basal binding.

[3] = system: Swiss Webster mice; experiment: Warm-water tail immersion assay, agonism (acute antinociception); details: single dose of 10 mg/kg s.c., n = 6, vs 10 mg/kg morphine
[4] = target: T3, κ opioid receptor (KOR) (Mus musculus, UniProt P33534); experiment: Competitive radioligand binding assay, KOR; details: for Selectivity κ/μ: ratio of Ki values
T3 construct: expressed in transfected cells; host or cells: CHO (mKOR-CHO), membrane preparation
Method: as §1, §2

[5] = target: T4, μ opioid receptor (MOR) (Mus musculus, UniProt P42866); experiment: Competitive radioligand binding assay, MOR
T4 construct: expressed in transfected cells; host or cells: CHO (mMOR-CHO), membrane preparation
Method: as §1, §2

[6] = system: Swiss Webster mice; experiment: Warm-water tail immersion assay, antagonism of morphine-induced antinociception; details: for Antagonism of morphine's antinociception, in words: single dose of 10 mg/kg s.c. in the presence of morphine (10 mg/kg), n = 6; for AD50 (95% CL) for counteracting morphine-induced antinociception: mice, s.c., given 5 min before morphine
[7] = target: T2, MOR; experiment: MOR calcium flux assay in Gαqi5-transfected mMOR-CHO cells; type: cell-based; details: for Agonistic activity in increasing intracellular calcium, in words: compared to full MOR agonist DAMGO
[8] = target: T5, KOR (Mus musculus, UniProt P33534); experiment: KOR [35S]GTPγS functional assay; type: biochemical; details: for Emax: relative to 3 μM U50488H, mean ± SEM, read-out: KOR [35S]GTPγS binding % Emax of U50488H
T5 construct: expressed in transfected cells; host or cells: CHO (KOR-CHO), membrane preparation
Method: as §3

[9] = target: T6, DOR (Homo sapiens, UniProt P41143); experiment: DOR [35S]GTPγS functional assay; type: biochemical; details: for Emax: relative to 3 μM SNC80, mean ± SEM, read-out: DOR [35S]GTPγS binding % Emax of SNC80
T6 construct: expressed in transfected cells; host or cells: CHO (DOR-CHO), membrane preparation
Method: as §3

[10] = system: morphine-pelleted mice; experiment: In vivo opioid withdrawal studies in morphine-pelleted mice; set-up: species or system mouse; details: for Jumps, mean count / Paw tremors, mean count / Wet dog shake, mean count: 5 mg/kg s.c., counted over 20 min; for Precipitated withdrawal symptoms, in words: s.c.
Method: Swiss Webster mice (six males per group, weighing 25–35 g and aged 6–8 weeks) were used. Following a previously established protocol,[20] a 75 mg morphine pellet was implanted subcutaneously into the back of each mouse, and they were allowed to recover in their home cages. Prior to testing, the mice were habituated for 30 min in an open-topped, clear Plexiglas observation chamber (26 × 26 × 26 cm^3) with lines marking the floor into quadrants. […]. Withdrawal symptoms began within 3 min of antagonist administration. Escape jumps, paw tremors, and wet dog shakes were recorded by counting their occurrences over a 20 min period for each mouse. Results are expressed as the mean ± SEM.

[11] = system: GI-tract motility; set-up: method as in PMID 22683223; details: cited from earlier work
[12] = system: Swiss Webster mice; details: cited from earlier work; for %MPE in single dose antagonism assay: in the presence of morphine; for AD50 (95% CL) for counteracting morphine-induced antinociception: mice
[13] = system: Swiss Webster mice; set-up: method as in PMID 35255685; details: warm-water tail immersion; cited from earlier work

Row | Compound | Ki [1] [nM] | Selectivity δ/μ [1] | EC50 [2] [nM] | Emax [2] [%] | Ki [4] [nM] | Selectivity κ/μ [4] | Ki [5] [nM] | Antagonism of morphine's antinociception, in words [6] | IC50 [7] [nM] | AD50 (95% CL) for counteracting morphine-induced antinociception [6] | Precipitated withdrawal symptoms, in words [10] | further results
1 | O=C(N[C@H]1CC[C@@]2(O)[C@H]3Cc4ccc(O)c5c4[C@@]2(CCN3CC2CC2)[C@H]1O5)c1ccns1 [Compound 1, 17-Cyclopropylmethyl-3,14β-dihydroxy-4,5α-epoxy-6α-(5′-isothiazolylcarboxamido)-morphinan hydrochloride] | 14.3 ± 0.66 | 28 | 4.93 ± 0.8 | 15.6 ± 1.11 | 1.81 ± 0.18 | 4 | 0.51 ± 0.08 | – | – | – | – | Antinociceptive effect (MPE) compared to morphine, in words [3]: significantly lower than that of morphine
2 | O=C(Cc1nccs1)N[C@H]1CC[C@@]2(O)[C@H]3Cc4ccc(O)c5c4[C@@]2(CCN3CC2CC2)[C@H]1O5 [Compound 7, 17-Cyclopropylmethyl-3,14β-dihydroxy-4,5α-epoxy-6α-(2′-thiazolylacetamido)-morphinan hydrochloride] | 1.3 ± 0.08 | 2 | 3.87 ± 1.29 | 10.2 ± 0.61 | 2.26 ± 0.5 | 3 | 0.65 ± 0.05 | significantly antagonized | – | – | – | –
3 | O=C(CCc1nccs1)N[C@H]1CC[C@@]2(O)[C@H]3Cc4ccc(O)c5c4[C@@]2(CCN3CC2CC2)[C@H]1O5 [Compound 8, 17-Cyclopropylmethyl-3,14β-dihydroxy-4,5α-epoxy-6α-[(3′-(thiazolyl-2′′-yl)propan-amido]morphinan hydrochloride] | 1.18 ± 0.06 | 3 | 3.4 ± 0.6 | 13.4 ± 0.41 | 2 ± 0.42 | 4 | 0.45 ± 0.06 | significantly antagonized | – | – | – | –
4 | O=C(N[C@@H]1CC[C@@]2(O)[C@H]3Cc4ccc(O)c5c4[C@@]2(CCN3CC2CC2)[C@H]1O5)c1ccns1 [Compound 9, 17-Cyclopropylmethyl-3,14β-dihydroxy-4,5α-epoxy-6β-(5′-isothiazolylcarboxamido)-morphinan hydrochloride] | 67.8 ± 7.17 | – | 0.71 ± 0.14 | 9.66 ± 1.37 | 1.22 ± 0.32 | 4 | 0.32 ± 0.03 | significantly antagonized | 6.53 ± 2.28 | 4.77 (3.59–6.34) mg/kg | – | Agonistic activity in increasing intracellular calcium, in words [7]: no apparent agonism; also recorded: none of them showed any significant agonistic activity; EC50 [8]: 7.06 ± 0.18 nM; Emax [8]: 49.9 ± 1.99%; EC50 [9]: 58.1 ± 10.3 nM; Emax [9]: 44.4 ± 4.15%
5 | O=C(Cc1ccns1)N[C@@H]1CC[C@@]2(O)[C@H]3Cc4ccc(O)c5c4[C@@]2(CCN3CC2CC2)[C@H]1O5 [Compound 10, 17-Cyclopropylmethyl-3,14β-dihydroxy-4,5α-epoxy-6β-(5′-isothiazolylacetamido)-morphinan hydrochloride] | 34 ± 4.18 | 58 | 1.16 ± 0.15 | 9.32 ± 0.67 | 1.14 ± 0.05 | 2 | 0.59 ± 0.09 | significantly antagonized | – | 13.12 (2.34–73.39) mg/kg | – | –
6 | O=C(N[C@@H]1CC[C@@]2(O)[C@H]3Cc4ccc(O)c5c4[C@@]2(CCN3CC2CC2)[C@H]1O5)c1cncs1 [Compound 11, 17-Cyclopropylmethyl-3,14β-dihydroxy-4,5α-epoxy-6β-(5′-thiazolylcarboxamido)-morphinan hydrochloride] | 77.9 ± 16.1 | 147 | 1.58 ± 0.44 | 13.7 ± 1.32 | 1.41 ± 0.24 | 3 | 0.53 ± 0.04 | significantly antagonized | – | – | – | –
7 | O=C(N[C@@H]1CC[C@@]2(O)[C@H]3Cc4ccc(O)c5c4[C@@]2(CCN3CC2CC2)[C@H]1O5)c1nccs1 [Compound 14, 17-Cyclopropylmethyl-3,14β-dihydroxy-4,5α-epoxy-6β-(2′-thiazolylcarboxamido)-morphinan hydrochloride] | 117 ± 23.6 | – | 0.56 ± 0.2 | 6.06 ± 0.52 | 0.75 ± 0.08 | 2 | 0.3 ± 0.04 | significantly antagonized | 12.4 ± 1.18 | 0.23 (0.04–1.37) mg/kg | fewer wet dog shakes and paw tremors at all testing doses than 1 mg/kg NLX | Agonistic activity in increasing intracellular calcium, in words [7]: no apparent agonism; also recorded: none of them showed any significant agonistic activity; Jumps, mean count [10]: 58.8; Paw tremors, mean count [10]: 45.7; Wet dog shake, mean count [10]: 17.7; EC50 [8]: 9.67 ± 1.81 nM; Emax [8]: 39.8 ± 2.82%; EC50 [9]: 44 ± 6.82 nM; Emax [9]: 25.9 ± 0.4%
8 | O=C(N[C@@H]1CC[C@@]2(O)[C@H]3Cc4ccc(O)c5c4[C@@]2(CCN3CC2CC2)[C@H]1O5)c1ccncc1 [NAP, 17-Cyclopropylmethyl-3,14β-Dihydroxy-4,5α-Epoxy-6β-[(4′-Pyridyl)Carboxamido]Morphinan] | – | – | – | – | – | – | – | – | – | – | – | ED50 in gastrointestinal (GI)-tract motility assay [11]: 8.8 µg/kg
9 | O=C(N[C@H]1CC[C@@]2(O)[C@H]3Cc4ccc(O)c5c4[C@@]2(CCN3CC2CC2)[C@H]1O5)c1cccs1 [NAT, reference compound] | – | – | – | – | – | – | – | – | 42.1 ± 4.51 | – | Significant withdrawal symptoms | %MPE in single dose antagonism assay [12]: 2.1 ± 1.7%; AD50 (95% CL) for counteracting morphine-induced antinociception [12]: 0.42 (0.21–0.82) mg/kg; %MPE in single dose agonism assay [13]: 15.2 ± 8.8%; Jumps, mean count [10]: 45.8; Paw tremors, mean count [10]: 29.2; Wet dog shake, mean count [10]: 14.5
10 | C=CCN1CC[C@]23c4c5ccc(O)c4O[C@H]2C(=O)CC[C@@]3(O)[C@H]1C5 [NLX, naloxone] | – | – | – | – | – | – | – | – | – | – | precipitated significant withdrawal symptoms | %MPE in single dose antagonism assay [12]: 2.9 ± 1.3%; AD50 (95% CL) for counteracting morphine-induced antinociception [12]: 0.05 (0.03–0.09) mg/kg
